Data from ChEMBL document CHEMBL1201862, “PubChem BioAssay data set” (2004).
The source made the active and inactive calls.

Tests used:
[1] = rescue of ΔF508 CFTR function, airway epithelium – human bronchial epithelial cells, plate reader, cherry-pick, two tests, dose response (AID 743267); type: functional, cell-based
BJ [2] = assay: BJ-TERT-LT-ST fibroblast viability loss – cell-based, RAS-independent, luminescence, dose response (AID 1935); type: functional; conditions: Homo sapiens;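 also: BJ fibroblasts immortalized with TERT plus LT and ST oncogenes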
[3] = DRD fibroblast viability loss – cell-based, non-viral oncogenic, luminescence, dose response (AID 1934); type: functional; conditions: Homo sapiens
BJ [4] = assay: BJ-TERT fibroblast viability loss – cell-based, RAS-independent, luminescence, dose response (AID 1933); type: functional; conditions: Homo sapiens
BJ [5] = assay: cells; type: functional, cell-based; conditions: Homo sapiens
[6] = target: Intestinal-type alkaline phosphatase (Homo sapiens, UniProt P09923); assay: human intestinal alkaline phosphatase activators, dose response, biochemical, luminescence, uHTS hits (AID 463120); type: functional
[7] = HGIII-sPLA2 enzyme inhibition potency – biochemical, QFRET, IC50, dose response (AID 743457);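 also: green fluorescence rise as the enzyme cleaves BODIPY PC-A2 in liposomes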
[8] = target: T1, Ubiquitin-conjugating enzyme E2 N (Homo sapiens, UniProt P61088); type: functional;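 also: Dose-response confirmation in a TR-FRET assay detecting UBC13-driven polyubiquitin chain formation, inhibition measured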
T1 sequence (P61088 whole entry): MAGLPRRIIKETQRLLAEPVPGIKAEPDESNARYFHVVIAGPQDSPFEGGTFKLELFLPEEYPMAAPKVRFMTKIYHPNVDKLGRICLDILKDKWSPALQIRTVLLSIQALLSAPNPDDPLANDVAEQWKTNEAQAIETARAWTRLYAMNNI

[9] = target: 5-hydroxytryptamine receptor 2A (Mus musculus, UniProt P35363); type: functional, cell-based;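 also: CHO-K1 cells with tagged receptor and beta-arrestin; agonist potency measured as compound-induced activation of the receptor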
[10] = target: T2, Zinc finger protein mex-5 (Caenorhabditis elegans, UniProt Q9XUB2); assay: potency of MEX-5 RNA-binding blockers – biochemical, C. elegans, fluorescence polarization, dose response (AID 1960)
T2 sequence (Q9XUB2 whole entry): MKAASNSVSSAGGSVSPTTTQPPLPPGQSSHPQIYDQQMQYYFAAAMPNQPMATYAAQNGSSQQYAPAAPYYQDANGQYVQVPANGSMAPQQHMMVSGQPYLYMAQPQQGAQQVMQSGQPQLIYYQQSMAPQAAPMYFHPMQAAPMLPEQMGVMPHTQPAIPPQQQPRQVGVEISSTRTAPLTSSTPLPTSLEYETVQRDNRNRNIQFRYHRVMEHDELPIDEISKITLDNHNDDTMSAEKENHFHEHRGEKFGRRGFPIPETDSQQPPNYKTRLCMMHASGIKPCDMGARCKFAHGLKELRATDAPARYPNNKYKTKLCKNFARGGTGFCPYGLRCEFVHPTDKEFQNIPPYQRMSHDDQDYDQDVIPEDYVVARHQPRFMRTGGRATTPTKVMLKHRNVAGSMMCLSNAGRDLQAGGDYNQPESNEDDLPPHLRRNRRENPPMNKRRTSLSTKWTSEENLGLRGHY

[11] = target: T3, RNA-binding protein pos-1 (Caenorhabditis elegans, UniProt G5EF15); assay: disruptors of C. elegans POS-1 RNA interaction – biochemical, fluorescence polarization, dose response (AID 1964);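 also: purified POS-1 fused to maltose binding protein made in E. coli; potency of compounds blocking POS-1 binding to fluorescent RNA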
T3 sequence (G5EF15 whole entry): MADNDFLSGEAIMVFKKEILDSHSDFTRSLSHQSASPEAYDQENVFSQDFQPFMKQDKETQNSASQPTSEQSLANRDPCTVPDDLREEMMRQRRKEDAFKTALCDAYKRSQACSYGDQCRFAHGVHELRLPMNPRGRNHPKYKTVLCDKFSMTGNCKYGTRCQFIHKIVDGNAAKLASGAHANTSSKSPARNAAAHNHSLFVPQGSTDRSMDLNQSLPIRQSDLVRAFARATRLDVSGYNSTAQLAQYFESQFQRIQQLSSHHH

Mu-type opioid receptor = Mu-type opioid receptor (Homo sapiens, UniProt P35372); type: functional, cell-based;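 also: U2OS cells with beta-arrestin recruitment to OPRM1 by beta-gal complementation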
[12] = MIN6 cell viability loss – mouse insulinoma, cytotoxicity control, dose response (AID 2122); type: functional;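 also: confirmatory high-throughput counterscreen run to flag cytotoxic compounds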
[13] = Shn3 3'UTR reporter signal decrease – cell-based, Clone20 osteoblasts, firefly luciferase, cherry-pick, set 2, Schnurri-3 inhibitor project, dose response (AID 720490); type: functional;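 also: actives lower the luminescence signal as inhibitors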
INS1 = assay: INS-1E survival protection against cytokine death – cell-based, luminescence, retest, dose response (AID 449756); type: functional; conditions: Rattus norvegicus;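 also: cell death triggered by IL-1 beta plus TNF-alpha plus IFN-gamma mixture; protective hits raise ATP signal compared with cytokine alone wells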
[14] = reduction of Shn3 3'UTR-driven luciferase in osteoblasts – cell-based, Clone20 osteoblasts, firefly luciferase, cherry-picked, dose response (AID 624132); type: functional;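 also: firefly luciferase luminescence from reporter carrying the Shn3 3'UTR in osteoblasts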
[15] = non-specific 3'UTR reporter inhibition in Clone20-Shn3RL – cell-based, Renilla luciferase, cherry-picked, counter-screen for Shn3 inhibitor project, dose response (AID 624133); type: functional
[16] = loss of viability in HepG2 cells – cell-based, CellTiter-Glo, cherry-picked, cytotoxicity control for Shn3 inhibitor project, dose response (AID 624134); type: functional
[17] = decrease of insulin promoter-GFP reporter – imaging, high-content screening, mouse beta cells (AID 1628); type: functional; conditions: MIN6
Kallikrein-7 = Kallikrein-7 (Homo sapiens, UniProt P49862); assay: Fluorescence Intensity-based biochemical primary high throughput dose response assay to identify activators of kallikrein-7 (K7) zymogen.
Vero = assay: viability loss in Vero cells – cell-based, plate reader, cherry-pick samples, cytotoxicity control, dose response (AID 687020); type: functional; conditions: Chlorocebus sabaeus
[18] = target: Matrix metalloproteinase-14 (Homo sapiens, UniProt P50281); assay: Dose Response confirmation of uHTS hits for a small molecule inhibitors of MT1-MMP activation in a fluorescence assay set 1.; type: functional
Bcl-2-like protein 10 = target: T4, Bcl-2-like protein 10 (Homo sapiens, UniProt Q9HD36); assay: Bcl-B/TR3 peptide binding disruption – biochemical, fluorescence polarization, FITC-TR3 peptide, selectivity assay for Bfl-1 inhibitor project, primary screen (AID 748);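 also: fluorescence polarization from a fluorescein-labelled TR3 peptide binding purified Bcl-B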
T4 sequence (Q9HD36 whole entry): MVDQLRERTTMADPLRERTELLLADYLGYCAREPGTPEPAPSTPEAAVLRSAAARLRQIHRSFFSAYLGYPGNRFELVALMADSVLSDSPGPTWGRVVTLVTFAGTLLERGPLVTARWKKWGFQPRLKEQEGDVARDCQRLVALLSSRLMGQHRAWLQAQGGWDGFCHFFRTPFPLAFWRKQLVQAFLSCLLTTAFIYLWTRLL

Large T antigen = Large T antigen (Simian virus 40, UniProt P03070); type: functional, Betapolyomavirus macacae;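 also: Confirmatory-stage PubChem screen for compounds that inhibit SV40 T antigen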
[19] = off-target signal loss in HeLa-CEM21 co-culture – HeLa F-luc CTL cells, cherry-picked, counter-screen for HIV-1 Env fusion inhibitor project, dose response (AID 652040); type: functional, cell-based;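 also: potency for signal decrease marking cytotoxic or nonspecific inhibition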
[20] = viability loss in CEM21 cells – cell-based, CellTiter-Glo luminescence, cherry-picked, cytotoxicity control for viral fusion inhibitor project, dose response (AID 652042); type: functional;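 also: potency for signal decrease meaning cytotoxicity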
HepG2 = assay: viability loss in HepG2 hepatoma cells – cell-based, cherry-picks, set 2, cytotoxicity control, dose response (AID 687002); type: functional; conditions: Homo sapiens
HeLa = assay: viability loss in HeLa cells – cell-based, ATP luminescence, cherry-pick samples, cytotoxicity control, dose response (AID 687004); type: functional; conditions: Homo sapiens
[21] = target: T5, NAD-dependent protein deacylase sirtuin-5, mitochondrial (Homo sapiens, UniProt Q9NXA8); assay: sirtuin-5 deacylation blockers, concentration series – biochemical, fluorescence imaging, cherry-pick, set 5, dose response (AID 720591);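 also: desuccinylation of succinyl peptide AMC substrate read as fluorescence after trypsin release; potency of inhibitors that lower fluorescence and may act on trypsin instead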
[22] = target: Botulinum neurotoxin type F (Clostridium botulinum, UniProt P30996); assay: High-throughput multiplex microsphere dose response for inhibitors of toxin protease, specifically Botulinum neurotoxin light chain F protease, compounds from Cherry Pick 02.; type: functional; conditions: read-out: EC50_MICROM
[23] = OVCAR8 cell viability loss – plate reader, dry powder samples, PAX8 project, dose response (AID 743197); type: functional, cell-based; conditions: OVCAR-8
[24] = general cell-killing toxicity readout – plate reader, dry powder samples, cytotoxicity control for PAX8 inhibitor project, dose response (AID 743021); type: functional, cell-based
[25] = reduced cellular PGC1a acetyl-lysine signal – cell-based, cherry-picked samples, dose response (AID 720514); type: functional;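 also: potency may reflect raised or lowered acetylation signal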
[26] = P. falciparum Dd2 growth inhibitors, dose response, SYBR Green, cherry-picked samples (AID 1159567); type: functional, cell-based
[27] = toxicity to human hepatoma HepG2 cells – cell-based, cherry-picked samples, cytotoxicity control, dose response (AID 1159577); type: functional
Paired box protein Pax-8 = Paired box protein Pax-8 (Homo sapiens, UniProt Q06710); assay: PAX8 transcriptional activity inhibition in RMG-I – RMG-I cells, luciferase, cherry-pick, dose response (AID 687027); type: functional, cell-based;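 also: luciferase reporter driven by Pax8 target thyroperoxidase promoter measured by SteadyGlo luminescence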
[28] = IGROV1 cell killing – plate reader, dry powder samples, PAX8 inhibitor project, dose response (AID 743043); type: functional, cell-based; conditions: IGROV-1
[29] = loss of viability in hepatoma HepG2 cells – cell-based, ATP luminescence, dry powder, cytotoxicity control, dose response (AID 652118); type: functional
[30] = target: Protein disulfide-isomerase (Homo sapiens, UniProt P07237); assay: inhibition of PDI-mediated insulin reduction – biochemical, turbidity, dry powder samples, set 2, confirmation (AID 652146)
[31] = Late stage counterscreen for inhibitors of Trypanosoma brucei methionyl tRNA synthetase (MetRS): Luminescence-based cell-based high throughput dose response assay to identify compounds that are cytotoxic to Jurkat human T lymphocyte cells.; type: functional
[32] = viability loss in MITF-independent A375 cells – cell-based, CellTiter-Glo luminescence, dry powder, set 2, counter-screen for MITF inhibitor project, dose response (AID 624489); type: functional; conditions: A-375;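 also: actives are compounds lowering A375 viability meaning general cytotoxicity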
[33] = cytotoxicity in MITF-independent A375 cells – cell-based, CellTiter-Glo luminescence, dry powder, set 4, counter-screen for MITF inhibitor project, dose response (AID 624364); type: functional; conditions: A-375;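 also: A375 melanoma cells are MITF independent so this is a counter screen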
[34] = target: Potassium channel subfamily K member 3 (Homo sapiens, UniProt O14649); assay: inhibition of human KCNK3 channel flux – CHO cells, FluxOR thallium flux, SAR follow-up (AID 652212); type: functional
[35] = target: Potassium channel subfamily K member 9 (Homo sapiens, UniProt Q9NPC2); assay: KCNK9 flux blockade, concentration-response – cell-based, FluxOR thallium flux, selectivity assay for TASK1 inhibitor project, SAR follow-up (AID 652211); type: functional;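 also: potency is for inhibitors of the channel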
[36] = target: C-X-C chemokine receptor type 4 (Homo sapiens, UniProt P61073); assay: SAR analysis of small molecule antagonists of the CXCR6 receptor using a CXCR4 receptor luminescent beta-arrestin counterscreen.; type: functional
[37] = target: C-C chemokine receptor type 6 (Homo sapiens, UniProt P51684); assay: SAR analysis of small molecule antagonists of the CXCR6 receptor using a CCR6 receptor luminescent beta-arrestin counterscreen.; type: functional
[38] = target: T5, NAD-dependent protein deacylase sirtuin-5, mitochondrial; assay: blockers of sirtuin-5 peptide desuccinylation – biochemical, fluorescence imaging, cherry-pick, set 6, dose response (AID 720597)

T5 sequence (Q9NXA8 whole entry): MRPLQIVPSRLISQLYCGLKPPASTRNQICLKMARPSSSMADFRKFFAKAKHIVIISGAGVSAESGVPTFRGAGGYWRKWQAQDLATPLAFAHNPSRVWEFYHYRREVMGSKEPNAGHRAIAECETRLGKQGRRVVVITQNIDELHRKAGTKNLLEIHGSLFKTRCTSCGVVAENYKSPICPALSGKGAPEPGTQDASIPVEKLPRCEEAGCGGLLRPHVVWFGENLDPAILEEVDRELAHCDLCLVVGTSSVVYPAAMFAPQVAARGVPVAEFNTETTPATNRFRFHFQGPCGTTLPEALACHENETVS
Paired box protein Pax-8, sequence (Q06710 whole entry): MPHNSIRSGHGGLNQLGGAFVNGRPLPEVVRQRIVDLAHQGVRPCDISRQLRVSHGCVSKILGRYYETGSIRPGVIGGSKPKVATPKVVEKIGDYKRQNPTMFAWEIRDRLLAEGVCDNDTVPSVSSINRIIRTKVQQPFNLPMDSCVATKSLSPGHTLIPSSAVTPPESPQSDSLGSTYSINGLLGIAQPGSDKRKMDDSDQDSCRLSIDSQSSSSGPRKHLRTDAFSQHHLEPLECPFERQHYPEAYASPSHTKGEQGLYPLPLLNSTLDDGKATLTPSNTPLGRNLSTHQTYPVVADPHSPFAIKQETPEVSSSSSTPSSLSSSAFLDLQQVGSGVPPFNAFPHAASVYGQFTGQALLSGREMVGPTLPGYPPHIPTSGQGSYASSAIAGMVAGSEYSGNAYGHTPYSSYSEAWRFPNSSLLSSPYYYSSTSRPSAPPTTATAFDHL
Botulinum neurotoxin type F, sequence (P30996 1-436 limits assumed): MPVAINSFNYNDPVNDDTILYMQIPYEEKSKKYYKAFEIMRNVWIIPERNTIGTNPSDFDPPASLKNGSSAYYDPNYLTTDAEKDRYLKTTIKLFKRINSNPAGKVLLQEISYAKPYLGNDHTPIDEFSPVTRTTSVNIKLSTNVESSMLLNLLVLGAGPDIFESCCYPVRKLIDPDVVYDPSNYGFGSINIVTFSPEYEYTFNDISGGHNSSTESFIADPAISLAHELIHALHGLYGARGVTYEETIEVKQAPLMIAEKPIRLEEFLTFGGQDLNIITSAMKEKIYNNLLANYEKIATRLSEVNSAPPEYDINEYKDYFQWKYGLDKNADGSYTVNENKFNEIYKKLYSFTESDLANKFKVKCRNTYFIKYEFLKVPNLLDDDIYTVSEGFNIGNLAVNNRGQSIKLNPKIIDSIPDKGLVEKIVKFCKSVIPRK
Potassium channel subfamily K member 3, sequence (O14649 whole entry): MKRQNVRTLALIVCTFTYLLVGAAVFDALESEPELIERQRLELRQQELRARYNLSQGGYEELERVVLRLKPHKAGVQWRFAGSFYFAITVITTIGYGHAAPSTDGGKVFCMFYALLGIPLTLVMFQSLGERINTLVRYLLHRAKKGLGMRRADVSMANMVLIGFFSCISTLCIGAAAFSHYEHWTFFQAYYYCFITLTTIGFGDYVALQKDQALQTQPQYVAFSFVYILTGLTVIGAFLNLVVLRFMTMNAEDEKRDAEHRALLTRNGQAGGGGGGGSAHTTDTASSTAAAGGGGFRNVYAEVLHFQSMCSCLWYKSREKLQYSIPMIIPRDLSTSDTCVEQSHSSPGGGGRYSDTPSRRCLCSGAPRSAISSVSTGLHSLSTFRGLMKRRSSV
C-X-C chemokine receptor type 4, sequence (P61073 whole entry): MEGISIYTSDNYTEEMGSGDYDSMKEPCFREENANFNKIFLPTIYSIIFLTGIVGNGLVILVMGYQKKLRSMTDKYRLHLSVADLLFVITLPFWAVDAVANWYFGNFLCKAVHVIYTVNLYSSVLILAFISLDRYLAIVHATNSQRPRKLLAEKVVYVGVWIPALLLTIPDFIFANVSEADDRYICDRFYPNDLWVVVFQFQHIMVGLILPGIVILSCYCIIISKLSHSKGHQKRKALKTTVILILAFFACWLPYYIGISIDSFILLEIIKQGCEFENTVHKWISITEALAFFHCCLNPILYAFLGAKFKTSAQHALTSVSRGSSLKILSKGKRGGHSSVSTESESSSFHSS
C-C chemokine receptor type 6, sequence (P51684 whole entry): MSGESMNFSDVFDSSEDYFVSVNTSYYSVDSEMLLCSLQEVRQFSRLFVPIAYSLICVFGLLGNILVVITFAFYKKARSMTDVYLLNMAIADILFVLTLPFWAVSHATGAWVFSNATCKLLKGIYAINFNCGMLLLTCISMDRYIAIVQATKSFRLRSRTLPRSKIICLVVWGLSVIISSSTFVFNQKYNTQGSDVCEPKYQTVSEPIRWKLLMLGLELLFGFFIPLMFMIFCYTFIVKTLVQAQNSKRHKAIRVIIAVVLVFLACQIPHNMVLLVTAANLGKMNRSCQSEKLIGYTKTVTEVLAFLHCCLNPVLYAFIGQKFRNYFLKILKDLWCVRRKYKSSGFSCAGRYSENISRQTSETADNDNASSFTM
5-hydroxytryptamine receptor 2A, sequence (P35363 whole entry): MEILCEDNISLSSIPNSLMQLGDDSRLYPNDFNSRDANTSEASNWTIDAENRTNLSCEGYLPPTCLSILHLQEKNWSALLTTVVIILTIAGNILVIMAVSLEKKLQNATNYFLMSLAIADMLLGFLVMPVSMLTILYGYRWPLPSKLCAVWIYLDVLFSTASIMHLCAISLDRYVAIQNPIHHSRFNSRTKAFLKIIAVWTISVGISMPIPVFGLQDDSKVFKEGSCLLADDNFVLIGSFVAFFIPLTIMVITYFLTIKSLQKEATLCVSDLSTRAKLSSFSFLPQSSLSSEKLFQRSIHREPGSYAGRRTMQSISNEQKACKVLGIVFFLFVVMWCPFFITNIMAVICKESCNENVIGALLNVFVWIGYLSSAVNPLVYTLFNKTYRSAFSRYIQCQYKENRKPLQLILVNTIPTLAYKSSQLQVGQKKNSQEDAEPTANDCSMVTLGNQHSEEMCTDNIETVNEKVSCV
Intestinal-type alkaline phosphatase, sequence (P09923 whole entry): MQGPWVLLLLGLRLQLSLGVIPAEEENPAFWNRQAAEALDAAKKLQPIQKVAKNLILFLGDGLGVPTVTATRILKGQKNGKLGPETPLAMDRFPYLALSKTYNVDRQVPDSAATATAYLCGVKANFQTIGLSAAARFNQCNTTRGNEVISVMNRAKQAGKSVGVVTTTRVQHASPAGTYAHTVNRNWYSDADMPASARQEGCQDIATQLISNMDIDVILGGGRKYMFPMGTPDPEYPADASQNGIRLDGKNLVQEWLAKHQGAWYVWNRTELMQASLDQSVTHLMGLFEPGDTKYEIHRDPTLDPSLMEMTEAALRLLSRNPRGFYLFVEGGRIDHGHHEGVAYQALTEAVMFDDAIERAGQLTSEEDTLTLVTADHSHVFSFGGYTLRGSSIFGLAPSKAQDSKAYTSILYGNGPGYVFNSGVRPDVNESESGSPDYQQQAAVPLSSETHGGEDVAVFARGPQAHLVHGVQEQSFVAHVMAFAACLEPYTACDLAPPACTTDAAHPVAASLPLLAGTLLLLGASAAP
Kallikrein-7, sequence (P49862 whole entry): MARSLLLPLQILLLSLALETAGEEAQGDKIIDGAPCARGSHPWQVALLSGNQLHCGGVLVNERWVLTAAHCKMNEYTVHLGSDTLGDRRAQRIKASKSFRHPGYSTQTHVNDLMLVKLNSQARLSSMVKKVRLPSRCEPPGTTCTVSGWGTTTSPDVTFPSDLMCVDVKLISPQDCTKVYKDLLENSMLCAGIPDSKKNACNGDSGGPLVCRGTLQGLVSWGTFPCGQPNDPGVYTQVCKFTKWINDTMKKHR
Protein disulfide-isomerase, sequence (P07237 whole entry): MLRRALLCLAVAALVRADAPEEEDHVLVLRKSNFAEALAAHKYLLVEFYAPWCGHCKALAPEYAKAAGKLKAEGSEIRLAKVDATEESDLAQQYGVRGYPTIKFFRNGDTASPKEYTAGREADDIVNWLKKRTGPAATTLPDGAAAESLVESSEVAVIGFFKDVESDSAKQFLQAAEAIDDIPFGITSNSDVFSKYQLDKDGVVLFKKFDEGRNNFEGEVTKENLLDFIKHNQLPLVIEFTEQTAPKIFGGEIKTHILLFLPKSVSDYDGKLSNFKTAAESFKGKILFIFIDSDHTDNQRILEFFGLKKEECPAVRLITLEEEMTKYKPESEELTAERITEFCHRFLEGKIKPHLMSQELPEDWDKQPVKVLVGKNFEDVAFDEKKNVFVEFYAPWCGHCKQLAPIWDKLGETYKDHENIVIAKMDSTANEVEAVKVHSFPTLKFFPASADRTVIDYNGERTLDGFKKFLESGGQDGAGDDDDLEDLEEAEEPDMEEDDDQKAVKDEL
Large T antigen, sequence (P03070 whole entry, the tested form may be a part): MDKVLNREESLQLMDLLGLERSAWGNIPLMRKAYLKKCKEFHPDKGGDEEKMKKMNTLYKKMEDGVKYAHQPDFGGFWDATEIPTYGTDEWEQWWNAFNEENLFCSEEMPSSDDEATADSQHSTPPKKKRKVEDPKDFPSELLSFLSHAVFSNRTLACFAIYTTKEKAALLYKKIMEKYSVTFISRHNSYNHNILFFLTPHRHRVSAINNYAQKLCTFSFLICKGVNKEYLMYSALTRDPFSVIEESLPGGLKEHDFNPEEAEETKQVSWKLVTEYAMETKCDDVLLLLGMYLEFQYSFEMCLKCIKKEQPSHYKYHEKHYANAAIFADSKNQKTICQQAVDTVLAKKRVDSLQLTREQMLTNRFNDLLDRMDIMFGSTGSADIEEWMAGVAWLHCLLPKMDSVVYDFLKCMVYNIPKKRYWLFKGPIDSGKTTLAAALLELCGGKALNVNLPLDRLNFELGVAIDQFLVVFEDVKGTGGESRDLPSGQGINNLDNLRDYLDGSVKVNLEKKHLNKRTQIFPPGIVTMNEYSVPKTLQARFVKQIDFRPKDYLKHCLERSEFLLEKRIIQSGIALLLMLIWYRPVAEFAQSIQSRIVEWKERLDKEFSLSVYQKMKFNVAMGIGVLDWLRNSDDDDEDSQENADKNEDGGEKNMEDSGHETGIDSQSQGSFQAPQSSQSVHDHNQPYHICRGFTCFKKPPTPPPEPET

## COc1ccccc1NC1=C(C(N)=O)C(=N)C(C(=O)Nc2cccc(Cl)c2Cl)S1 (configuration not stated)
[1]
  AC50: 6.08 µM (active)
BJ [2]
  EC50: 22.3 µM (active)
[3]
  EC50: 4.27 µM (active)
BJ [4]
  EC50: 14.5 µM (active)
BJ [5]
  EC50: 33.3 µM (inconclusive)

## COc1ccc(NC(S)=NNC(=O)c2nnn(-c3ccccc3)c2C)cc1
[6]
  EC50: 14.2 µM (active)
[7]
  IC50: > 122 µM (inactive)
[8]
  IC50: > 20 µM (inactive)

## Cc1ccccc1-c1ccc(/C=C2/SC(N3CCOCC3)=NC2=O)o1
[9]
  EC50: 6.39 µM (active)
[10]
  EC50: 69.6 µM (active)
[11]
  EC50: 26.1 µM (inconclusive)
Mu-type opioid receptor
  EC50: 92.5 µM (inactive)

## Oc1ccc(-c2[nH]nc(C(F)(F)F)c2-c2ccccc2)c(O)c1
[12]
  IC50: 0.547 µM (active)
[13]
  AC50: 0.473 µM (active)
INS1
  AC50: 3.81 µM (active)
[14]
  AC50: 0.283 µM (active)
[15]
  AC50: 2.63 µM (active)
[16]
  AC50: 53.2 µM (active)
[17]
  IC50: 0.666 µM (active)

## Cc1nc2ccc(NC(=O)N3CCCCC3)cc2nc1C
Kallikrein-7
  EC50: 5.48 µM (active)

## C=CCOc1ccccc1CN1CCC(Cc2ccccc2)CC1
Vero
  AC50: 35 µM (active)

## C/C(=C/c1oc2ccc(O)cc2c1[N+](=O)[O-])N(C)C
[18]
  IC50: 13.3 µM (active)
Bcl-2-like protein 10
  IC50: > 100 µM (inactive)
Large T antigen
  IC50: 9.41 µM (active)

## CCc1nc(N2CCCCC2C)c2oc3ccccc3c2n1 (configuration not stated)
[19]
  AC50: 49.6 µM (active)
[20]
  AC50: 36.2 µM (active)
HepG2
  AC50: 14.2 µM (active)
HeLa
  AC50: 11.7 µM (active)

## COc1ccc(-c2nnn(CC(=O)N(Cc3ccco3)C(C(=O)NCC3CCCO3)c3ccco3)n2)cc1 (configuration not stated)
[21]
  AC50: > 30 µM (inactive)

## Cc1cc2ccccc2n1CCNC(=O)Cc1ccccc1
[22]
  EC50: 2.9 µM (active)

## COc1ccc(-c2ccc([C@@H]3[C@@H]4CN(Cc5cc(OC)cc(OC)c5)C[C@H]3N4)cc2)cc1
[23]
  AC50: 23.8 µM (active)
[24]
  AC50: 11.8 µM (active)
[25]
  AC50: 10.5 µM (active)
[26]
  AC50: 2.24 µM (active)
[27]
  AC50: 6.38 µM (active)
Paired box protein Pax-8
  AC50: 10.1 µM (active)
[28]
  AC50: 21.5 µM (active)

## CCOC(=O)C1(CCOc2ccccc2)CCN(C(=O)OC(C)(C)C)CC1
[29]
  AC50: 44.4 µM (active)
[30]
  AC50: > 30 µM (inactive)

## O=C(NCc1nc2ccccc2[nH]1)C1=C[C@@H](c2ccc3c(c2)OCO3)C[C@@H](OCCCCO)O1
[31]
  IC50: > 83.3 µM (inactive)

## O=C1C(NS(=O)(=O)c2ccccc2)=C(N2CCOCC2)C(=O)c2ccccc21
[32]
  AC50: > 70 µM (inactive)
[33]
  AC50: > 70 µM (inactive)

## COc1ccccc1NC(=O)c1cccc(NC(=O)CC2CCCC2)c1
[34]
  IC50: 0.086 µM (active)
[35]
  IC50: 2.63 µM (active)

## COc1ccccc1NC(=O)CN1C2CCCC1CC(NC(=O)c1cc(OC)c(OC)c(OC)c1)C2 (configuration not stated)
[36]
  IC50: > 79 µM (inactive)
[37]
  IC50: > 79 µM (inactive)

## Cc1ccc(S(=O)(=O)N(C)C[C@@H]2OCCCC[C@@H](C)Oc3ccc(NS(=O)(=O)c4ccc(Cl)cc4)cc3C(=O)N([C@@H](C)CO)C[C@H]2C)cc1
[38]
  AC50: > 30 µM (inactive)
